Assay results as given in patent publication US20110237560A1, “MODULATING AND/OR DETECTING ACTIVATION INDUCED DEAMINASE AND METHODS OF USE THEREOF” (priority 2010, published 2011).
Residues, ends and D or L forms follow the SMILES beside them. *: point of attachment. Cbz = O=C(OCc1ccccc1)*

Tests used:
[1] = test system: Hsp90; settings: cited from earlier work
[2] = test system: various cancer cell lines; settings: cited from earlier work
[3] = test system: AID-GFP; assay: Monitoring of AID stability: GFP signal (MFI) by flow cytometry in Ramos transfectants; type: cell-based, human; settings: for degradation of AID-GFP induced by Hsp90 inhibition, with proteasome inhibitor: stable transfectants of Ramos and DT40 cells, 10 microM MG132
Procedure: (§1) One of two experiments is shown. […] (D) AID stabilization by Hsp90 requires protein-protein interaction. […] Dead cells were excluded by propidium iodide staining. […] One of five independent experiments is shown. […] (D) and (F) are representative of three different experiments.
(A) AID degradation following Hsp90 inhibition is distinct from nuclear AID degradation. Ramos cells stably expressing AID-GFP were treated in triplicate with DMSO (Ctrl), 2 microM GA and/or 50 ng/mL leptomycin B (LMB) and the GFP signal was monitored over time by flow cytometry. The MFI normalized to t0=100% is plotted for each treatment. Dead cells were excluded by propidium iodide staining. One out of five identical experiments is shown. […] Ramos cells stably expressing AID-GFP pretreated with 100 ng/mL cycloheximide (CHX), a known protein synthesis inhibitor, for 1 h were treated and analyzed as in (A). One out of four identical experiments is shown. (C) Cytoplasmic destabilization of AID following Hsp90 inhibition. Analogous experiments to those in A and B were performed on Ramos cells stably expressing GFP-AID, which was previously shown to be unable to enter the nucleus (probably because the N-terminal fusion of GFP to AID masks the NLS)^28. One out of three identical experiments is shown. (D) AID degradation following Hsp90 inhibition requires the proteasome. Ramos cells stably expressing AID-GFP were treated with DMSO (Ctrl), 2 microM 17-MG and 10 microM MG132, a known specific proteasome inhibitor, as indicated. The GFP signal was monitored and plotted as above. One out of five experiments is shown. (E) Lower AID steady-state levels induced by Hsp90 inhibition can be blocked by proteasome inhibition in B cell lymphoma lines. Human and chicken B-cell lines (Ramos and DT40 respectively) were treated with 2 microM GA and 10 microM MG132 and subsequently harvested as indicated. The cells were lyzed, fractionated on SDS-PAGE and blotted. Blots were probed with anti-AID and anti-actin. One out of two experiments is shown for each cell line. (F) Hsp90 inhibition enhances AID polyubiquitination. […] Immunoprecipitates were analyzed by western blot using anti-GFP and anti-ubiquitin antibodies. […] In the lower panel, the relative amount of polyubiquitinated AID was quantified by densitometry using ImageQuant™ and the relative value of three independent experiments for each Ramos, HeLa and primary mouse B cells was plotted+SD. […]
(A) DT40 cells and (B) Hela aid−/− cells stably expressing AID-GFP were treated with the indicated combinations of DMSO (Ctrl), 2 microM GA, 50 ng/mL leptomycin B (LMB), a nuclear export inhibitor and/or 10 microM MG132, a proteasome inhibitor. The GFP signal was monitored by flow cytometry and the MFI normalized to the signal at t0 for each treatment. […]

[4] = test system: AID mRNA; settings: breast and ovarian tissue; cited from earlier work
[5] = test system: DT40 cells; assay: DT40 cell growth under chronic Hsp90 inhibition; type: cell-based, chicken; settings: chronic low doses
Procedure: The median obtained for populations treated in each condition is indicated. […] Mean+SD values for the seven populations in each condition are plotted (middle panel). […] An identical experiment to (A) was performed except that the less toxic 17-AAG was used to inhibit Hsp90. […] The effect of the two 17-AAG concentrations used on DT40 growth was monitored by calculating the total number of cells in populations originating from 10^5 cells (left panel). The data plotted is the mean+SD of triplicate cultures for each condition. […] The quantitation of AID levels (middle panel) and cell growth curves (right panel) were done as in (B).

[6] = test system: IgVlambda region; assay: Somatic hypermutation in DT40 cells by sequencing of IgVlambda; settings: 0.1 microM
Procedure: DT40 sIgM− cells were purified by FACS sorting and grown for about a week in 24-well plates until confluent before addition of Hsp90 inhibitors. This method was favored over using single cell clones because of the effect of Hsp90 inhibition on cell growth. […] Cell populations were sorted and grown as above and the sIgM phenotype analyzed by flow cytometry. The mutation load and pattern was determined by sequencing PCR-amplified Vlambda. AID levels in the populations were quantified by western blot after expansion.
This region was PCR-amplified from control and 17-MG-treated (0.1 microM) cell populations after 4 weeks of growth, the PCR product cloned and 10-11 clones for each population were sequenced.

[7] = test system: endogenous AID; assay: Endogenous AID levels by western blot in B-cell lymphoma lines (Ramos, CH12-F3, DT40); type: cell-based, human, mouse and chicken; settings: Ramos and DT40; 2 microM GA and 10 microM MG132
Procedure: as §1
(A) AID degradation following Hsp90 inhibition is distinct from nuclear AID degradation. Ramos cells stably expressing AID-GFP were treated in triplicate with DMSO (Ctrl), 2 microM GA and/or 50 ng/mL leptomycin B (LMB) and the GFP signal was monitored over time by flow cytometry. The MFI normalized to t0=100% is plotted for each treatment. Dead cells were excluded by propidium iodide staining. […] Ramos cells stably expressing AID-GFP pretreated with 100 ng/mL cycloheximide (CHX), a known protein synthesis inhibitor, for 1 h were treated and analyzed as in (A). […] The GFP signal was monitored and plotted as above. […] Immunoprecipitates were analyzed by western blot using anti-GFP and anti-ubiquitin antibodies. […] In the lower panel, the relative amount of polyubiquitinated AID was quantified by densitometry using ImageQuant™ and the relative value of three independent experiments for each Ramos, HeLa and primary mouse B cells was plotted+SD.
In cell lines stably expressing GFP-tagged AID or AID mutants, the GFP fluorescence signal was measured by flow cytometry at various time points after the indicated treatments. […]

Molecule: O=C1OCC/C=C/CC/C=C/C(=N/OCC(=O)N2CCCCC2)Cc2c(Cl)c(O)cc(O)c21 [NXD30001]
- Hsp90 binding affinity compared to 17-MG and 17-DMAG [1]: enhanced
- potency in inhibiting cell growth in vitro compared to 17-MG and 17-DMAG [2]: enhanced

Molecule: C[C@@H]1C[C@@H]([C@H](O)CC2CC(=O)NC(=O)C2)C(=O)[C@@H](C)C1 [CHX, cycloheximide]
- decay of AID-GFP after protein synthesis inhibition ([3]; Ramos, CHX alone): expected decay

Molecule: CC(=O)N[C@@H](CSC(=O)[C@]1([C@@H](O)C(C)C)NC(=O)[C@H](C)[C@@H]1O)C(=O)O [lactacystin]
- degradation of AID-GFP induced by Hsp90 inhibition, with proteasome inhibitor [3]: Identical results

Molecule: CCC(=C/[C@H](C)C/C=C/C(C)=C/[C@@H](C)C(=O)[C@@H](C)[C@H](O)[C@@H](C)C/C(C)=C/C(=O)O)/C=C/[C@@H]1OC(=O)C=C[C@@H]1C [LMB, leptomycin B]
- stability of GFP-AID (unable to enter the nucleus) ([3]; Ramos expressing GFP-AID): not destabilized

Molecule: estrogen
- increase in AID mRNA production [4]: > 20 fold

Molecule: C=CCNC1=C2C[C@@H](C)C[C@H](OC)[C@H](O)[C@@H](C)/C=C(\C)[C@H](OC(N)=O)[C@@H](OC)/C=C\C=C(/C)C(=O)NC(=CC1=O)C2=O [17-AAG, 17-(Allylamino)-17-demethoxygeldanamycin]
- cell growth [5]: minimal impact on cell growth
- decrease of mutation frequency versus controls ([6]; 4 weeks): ~5 fold
- mutation frequency of the IgVlambda region ([6]; 4 weeks of growth, 10-11 clones per population): 1.11×10^−3 mutations/base pair

Molecule: COC1=C2C[C@@H](C)C[C@H](OC)[C@H](O)[C@@H](C)/C=C(\C)[C@H](OC(N)=O)[C@@H](OC)/C=C\C=C(/C)C(=O)NC(=CC1=O)C2=O [GA, geldanamycin]
- cell growth [5]: delayed cell growth

Molecule: CC(C)C[C@@H](C=O)NC(=O)[C@H](CC(C)C)NC(=O)[C@H](CC(C)C)NC(=O)OCc1ccccc1 [MG132] (Cbz-Leu-Leu-Leu-aldehyde)
- degradation of endogenous AID induced by Hsp90 inhibition, with proteasome inhibitor [7]: prevented the degradation of AID
- degradation of AID-GFP induced by Hsp90 inhibition, with proteasome inhibitor [3]: prevented the degradation of AID
